ChEMBL document CHEMBL1142720, “Fluoro-olefins as peptidomimetic inhibitors of dipeptidyl peptidases” (J Med Chem, 2005)

Assays:
[1] = target: Dipeptidyl peptidase 4 (Homo sapiens, UniProt P27487); experiment: Inhibitory concentration against human Dipeptidylpeptidase IV
[2] = target: Dipeptidyl peptidase 2 (Homo sapiens, UniProt Q9UHL4); experiment: Inhibitory concentration against human Dipeptidylpeptidase II

Chain of Dipeptidyl peptidase 4 (P27487 whole entry): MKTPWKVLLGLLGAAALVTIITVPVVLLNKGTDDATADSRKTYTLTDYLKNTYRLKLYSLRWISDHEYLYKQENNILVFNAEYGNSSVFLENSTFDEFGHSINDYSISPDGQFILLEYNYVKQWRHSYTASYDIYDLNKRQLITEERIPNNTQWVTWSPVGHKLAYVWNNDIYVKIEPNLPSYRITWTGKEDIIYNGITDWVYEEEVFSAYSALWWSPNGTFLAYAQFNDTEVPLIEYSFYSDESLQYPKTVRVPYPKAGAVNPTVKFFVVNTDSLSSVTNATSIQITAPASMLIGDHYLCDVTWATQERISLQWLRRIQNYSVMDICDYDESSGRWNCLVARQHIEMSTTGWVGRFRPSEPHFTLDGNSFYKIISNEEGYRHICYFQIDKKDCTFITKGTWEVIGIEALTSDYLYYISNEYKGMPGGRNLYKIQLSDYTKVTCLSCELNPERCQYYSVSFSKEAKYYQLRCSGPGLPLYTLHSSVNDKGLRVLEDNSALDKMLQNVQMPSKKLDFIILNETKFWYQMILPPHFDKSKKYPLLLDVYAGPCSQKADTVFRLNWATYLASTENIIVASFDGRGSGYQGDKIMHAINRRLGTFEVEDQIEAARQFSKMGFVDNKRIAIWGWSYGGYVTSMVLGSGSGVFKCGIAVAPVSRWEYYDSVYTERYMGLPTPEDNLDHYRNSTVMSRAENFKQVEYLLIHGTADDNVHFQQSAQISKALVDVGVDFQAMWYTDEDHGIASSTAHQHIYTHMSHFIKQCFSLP

SMILES	IC50 [1]	IC50 [2]
FC(CNCCc1ccccc1)=C1CCCC1	> 1000 µM	
FC(CNC1CCCCC1)=C1CCCC1	> 1000 µM	
S=C(CNCc1ccccc1)N1CCCCC1	> 1000 µM	
N#CC1CCC/C1=C(\F)CNCCc1ccccc1 (centres undefined)	> 1000 µM	
COc1ccc(CNCC(F)=C2CCCC2)cc1	> 1000 µM	
S=C(CNC1CCCCC1)N1CCCCC1	> 1000 µM	
O=C(CNCc1ccccc1)N1CCCCC1	> 1000 µM	397 µM
FC(CNC1CCN(Cc2ccccc2)CC1)=C1CCCCC1	> 250 µM	
O=C(CNCc1ccccc1)N1CCCC1	1000 µM	500 µM
FC(CNCCc1ccccc1)=C1CCCCC1	> 1000 µM	
FC(CNCc1cccc(C(F)(F)F)c1)=C1CCCCC1	> 125 µM	
N#CC1CCC/C1=C(/F)CNC12CC3CC(CC(C3)C1)C2 (centres undefined)		> 100 µM
N#CC1CCC/C1=C(\F)CNCc1ccc(F)cc1 (centres undefined)	> 500 µM	
CN(C)CCCNCC(F)=C1CCCCC1	> 1000 µM	
N#CC1CCC/C1=C(/F)CNCc1ccc(F)cc1 (centres undefined)	> 1000 µM	
S=C(CNCc1ccc2c(c1)OCO2)N1CCCCC1	> 1000 µM	
FC(CNCCc1ccccn1)=C1CCCC1	> 1000 µM	
CN(C)CCCNCC(F)=C1CCCC1	> 1000 µM	
FC(CNCc1ccccc1)=C1CCCC1	> 1000 µM	
COc1ccc(CNCC(F)=C2CCCCC2)cc1	> 250 µM	

SMILES	IC50 [1]	IC50 [2]
O=C(CNC1CCCCC1)N1CCCC1	148 µM	276 µM
FC(CNCc1ccc2c(c1)OCO2)=C1CCCCC1	> 250 µM	
FC(CNC12CC3CC(CC(C3)C1)C2)=C1CCCCC1	> 250 µM	
FC(CNC1CCNCC1)=C1CCCCC1	> 1000 µM	
FC(CNCc1ccc(F)cc1)=C1CCCCC1	> 250 µM	
C(CNC1CCCCC1)=C1CCCC1	> 1000 µM	
CN1CCC(NCC(F)=C2CCCCC2)CC1	> 125 µM	
FC(CNC1CCN(Cc2ccccc2)CC1)=C1CCCC1	> 250 µM	
FC(CNC1CCCCC1)=C1CCCCC1	> 500 µM	500 µM
FC(CNCc1ccc(F)cc1)=C1CCCC1	> 1000 µM	
C(CNCc1ccc2c(c1)OCO2)=C1CCCC1	> 250 µM	
FC(CNCc1ccccc1)=C1CCCCC1	> 1000 µM	
N#CC1CCC/C1=C(\F)CNC12CC3CC(CC(C3)C1)C2 (centres undefined)		> 100 µM
O=C(CNC1CCCCC1)N1CCCCC1	> 1000 µM	177 µM
O=C(CNCc1ccc2c(c1)OCO2)N1CCCCC1	> 1000 µM	
FC(CNc1ccccc1)=C1CCCCC1	> 250 µM	
N#CC1CCC/C1=C(/F)CNCCc1ccccc1 (centres undefined)	> 500 µM	
C(CNCc1ccccc1)=C1CCCC1	> 1000 µM	
O=C(CNCc1ccc2c(c1)OCO2)N1CCCC1	> 1000 µM	
